Values of other authors in patent US20040105900A1, “Extracts derived from Pueraria mirifica, Butea superba and/or Mucuna collettii and extraction thereof” (CHEIL JEDANG CORPORATION, priority 1999, published 2004).

System: skin of menopausal females
Conditions: after 6 months of application to the skin

In the case of estrogen, the “improvement in the depth of wrinkles” value is listed as 60%.
